Test results as given in patent publication US20230181580A1, “TREATMENT OF PROLIFERATIVE DISEASES OF THE CNS” (AUCENTRA THERAPEUTICS PTY LTD, priority 2020, published 2023).

Key:
CDK1/B = CDK1/B (Homo sapiens, UniProt P06493); assay: CDK kinase inhibition assay (radiometric / ADP Glo); type: biochemical
Method: (§1) Eurofins Pharma Discovery or Reaction Biology Corporation Kinase Profiler services were used to measure inhibition of CDKs and other kinases by radiometric assay (RIA). Inhibition of CDK4/Cyclin D1, CDK6/Cyclin D3 and CDK9/T1 were also determined in-house using ADP Glo Kinase assays (Promega Corporation, Madison Wis., United States of America). Briefly, the kinase reaction for CDK4/Cyclin D1 and CDK6/Cyclin D3 was performed with kinase reaction buffer ([…] Tris base pH 7.5, 20 mM MgCl2, 0.4 mM DTT), 0.1 mg/ml BSA and RB-CTF substrate (retinoblastoma protein1 C-terminal fraction). For CDK9/CyclinT1, the kinase reaction was performed with standard assay buffer and Kinase Dilution Buffer and RBER-IRStide substrate. Serial dilutions of 1:3 were prepared for test compounds for 10 concentrations (from 10 μM to 0.5 nM). The kinase reactions were started by addition of ATP, incubated for 40 min at 37° C. and then stopped by adding 10 μL of ADP Glo reagent. After incubation at room temperature (RT) in the dark for 40 min, 20 μL of kinase detection reagent was added per well and incubated for 40 min. Luminescence was measured using an EnVision Multilabel plate reader (PerkinElmer, Buckinghamshire, United Kingdom). Positive and negative controls were performed in the presence and absence of CDK kinases, respectively. Half-maximal inhibition (IC50) values were calculated using a 4-parameter logistic non-linear regression model with Graphpad prism (Version 6.0). Apparent inhibition constants (Ki) values were calculated from Km (ATP) and IC50 values for the respective kinases.

CDK2/A = CDK2/A (Homo sapiens, UniProt P24941); assay: as above; type: biochemical
Method: as §1

CDK4/D1 = CDK4/D1 (Homo sapiens, UniProt P11802); assay: as above; type: biochemical
CDK4/D1, sequence (P11802 whole entry): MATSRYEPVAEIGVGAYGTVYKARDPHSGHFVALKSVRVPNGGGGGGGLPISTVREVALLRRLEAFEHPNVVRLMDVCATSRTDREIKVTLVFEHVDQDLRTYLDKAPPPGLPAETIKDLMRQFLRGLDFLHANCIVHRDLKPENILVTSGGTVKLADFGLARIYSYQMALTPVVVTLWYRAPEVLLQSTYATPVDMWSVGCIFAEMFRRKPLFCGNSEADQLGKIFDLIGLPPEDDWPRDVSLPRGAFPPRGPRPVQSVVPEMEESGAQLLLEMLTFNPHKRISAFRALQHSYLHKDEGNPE
CDK4/D1, sequence (P24385 whole entry partner): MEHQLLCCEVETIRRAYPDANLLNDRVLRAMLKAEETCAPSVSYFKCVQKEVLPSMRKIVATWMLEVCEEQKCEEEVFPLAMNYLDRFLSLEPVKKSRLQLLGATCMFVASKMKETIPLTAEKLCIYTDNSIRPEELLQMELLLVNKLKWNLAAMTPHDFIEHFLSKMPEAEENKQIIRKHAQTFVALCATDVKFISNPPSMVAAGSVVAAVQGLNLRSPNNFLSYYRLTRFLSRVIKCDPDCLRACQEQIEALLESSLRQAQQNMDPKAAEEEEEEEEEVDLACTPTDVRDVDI
Method: as §1

CDK6/D3 = CDK6/D3 (Homo sapiens, UniProt Q00534); assay: as above; type: biochemical
CDK6/D3, sequence (Q00534 whole entry): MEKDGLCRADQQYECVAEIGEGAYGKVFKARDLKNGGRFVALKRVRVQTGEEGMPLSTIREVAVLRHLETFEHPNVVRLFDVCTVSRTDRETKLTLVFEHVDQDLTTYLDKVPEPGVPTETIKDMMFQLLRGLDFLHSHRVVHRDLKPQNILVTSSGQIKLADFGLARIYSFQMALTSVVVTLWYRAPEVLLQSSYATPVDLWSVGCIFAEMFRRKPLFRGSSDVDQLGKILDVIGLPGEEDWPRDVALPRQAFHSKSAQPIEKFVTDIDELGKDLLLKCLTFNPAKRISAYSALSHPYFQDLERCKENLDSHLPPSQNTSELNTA
CDK6/D3, sequence (P30281 whole entry partner): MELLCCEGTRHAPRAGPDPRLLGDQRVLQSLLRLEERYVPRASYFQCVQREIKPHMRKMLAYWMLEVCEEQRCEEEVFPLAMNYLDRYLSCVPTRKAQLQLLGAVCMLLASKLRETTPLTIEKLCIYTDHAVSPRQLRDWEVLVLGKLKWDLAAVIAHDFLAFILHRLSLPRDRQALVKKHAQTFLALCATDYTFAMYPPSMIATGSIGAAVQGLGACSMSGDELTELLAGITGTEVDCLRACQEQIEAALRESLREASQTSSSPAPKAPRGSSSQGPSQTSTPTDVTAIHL
Method: as §1

CDK9/T1 = CDK9/T1 (Homo sapiens, UniProt P50750); assay: as above; type: biochemical
CDK9/T1, sequence (P50750 whole entry): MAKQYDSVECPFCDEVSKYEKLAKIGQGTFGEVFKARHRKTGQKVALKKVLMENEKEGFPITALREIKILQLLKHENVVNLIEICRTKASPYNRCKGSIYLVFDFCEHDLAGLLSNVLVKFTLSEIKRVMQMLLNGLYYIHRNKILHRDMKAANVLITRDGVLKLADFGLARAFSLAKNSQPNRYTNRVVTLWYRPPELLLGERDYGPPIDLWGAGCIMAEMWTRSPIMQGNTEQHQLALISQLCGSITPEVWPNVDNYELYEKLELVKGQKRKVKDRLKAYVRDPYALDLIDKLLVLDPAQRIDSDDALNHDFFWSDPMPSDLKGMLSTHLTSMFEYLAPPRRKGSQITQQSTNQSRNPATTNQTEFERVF
CDK9/T1, sequence (O60563 whole entry partner): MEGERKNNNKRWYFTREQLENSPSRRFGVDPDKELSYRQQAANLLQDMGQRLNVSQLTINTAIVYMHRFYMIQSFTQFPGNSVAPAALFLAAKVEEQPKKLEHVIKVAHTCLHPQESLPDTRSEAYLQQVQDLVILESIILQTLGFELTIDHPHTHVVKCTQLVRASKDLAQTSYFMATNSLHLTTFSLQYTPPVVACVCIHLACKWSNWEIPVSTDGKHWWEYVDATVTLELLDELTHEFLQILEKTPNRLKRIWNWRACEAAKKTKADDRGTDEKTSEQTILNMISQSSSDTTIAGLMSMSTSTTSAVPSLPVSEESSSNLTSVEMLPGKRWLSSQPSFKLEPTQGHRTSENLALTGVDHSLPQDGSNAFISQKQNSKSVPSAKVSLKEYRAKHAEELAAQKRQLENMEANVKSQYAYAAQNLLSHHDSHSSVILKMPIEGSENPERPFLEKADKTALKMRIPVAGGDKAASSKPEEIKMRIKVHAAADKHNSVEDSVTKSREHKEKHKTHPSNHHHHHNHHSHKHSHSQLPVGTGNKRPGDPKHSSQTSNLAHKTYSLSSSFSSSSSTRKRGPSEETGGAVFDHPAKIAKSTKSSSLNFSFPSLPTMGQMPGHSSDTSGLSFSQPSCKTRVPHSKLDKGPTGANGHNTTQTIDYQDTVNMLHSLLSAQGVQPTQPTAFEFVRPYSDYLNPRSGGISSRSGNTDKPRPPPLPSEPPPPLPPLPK
Method: as §1

MV4-11 = assay: Resazurin proliferation assay, leukaemia cell line; type: cell-based; details: Homo sapiens, 72 h, read-out: Antiproliferative activity GI50 MV4-11
From the text: (§2) Representative compounds from Example 1, were subjected to standard MTT (3-(4,5-dimethylthiazol-2-yl)-2,5-diphenyltetrazolium bromide) and resazurin assays on solid tumour cell lines (including GBM cell lines) and leukemia cell lines, respectively, as previously reported (Wang S et al., J Med Chem 47:1662-1675, 2004; and Diab S. et al. CheMedChem 9:962-972, 2014).

MB453 = assay: MTT proliferation assay, breast; type: cell-based; details: 72 h, read-out: Antiproliferative activity GI50 MB453
From the text: as §2

Colo205 = assay: MTT proliferation assay, colorectal; type: cell-based; details: Homo sapiens, COLO 205, 72 h, read-out: Antiproliferative activity GI50 Colo205
From the text: as §2

T98G = assay: MTT proliferation assay, glioblastoma; type: cell-based; details: Homo sapiens, 72 h, read-out: Antiproliferative activity GI50 T98G
Method: (§3) All three GBM cell lines used in this example, namely U87, U251 and T98G, were cultured in Eagle's Minimum Essential Medium (EMEM) with 10% fetal bovine serum in 75 cm^2 flasks at 37° C. and 5% CO2. All cell lines were confirmed to be mycoplasma-free prior to any experiment setup.
as §2

U251 = assay: MTT proliferation assay, glioblastoma; type: cell-based; details: Homo sapiens, U-251, 72 h, read-out: Antiproliferative activity GI50 U251
Method: as §3, §2

U87 = assay: MTT proliferation assay, glioblastoma; type: cell-based; details: Homo sapiens, U-87 MG, 72 h, read-out: Antiproliferative activity GI50 U87
Method: as §3, §2

H460 = assay: MTT proliferation assay, lung; type: cell-based; details: Homo sapiens, NCI-H460, 72 h, read-out: Antiproliferative activity GI50 H460
From the text: as §2

A2780 = assay: MTT proliferation assay, ovarian; type: cell-based; details: Homo sapiens, 72 h, read-out: Antiproliferative activity GI50 A2780
From the text: as §2

PANC1 = assay: MTT proliferation assay, pancreas; type: cell-based; details: Homo sapiens, PANC-1, 72 h, read-out: Antiproliferative activity GI50 PANC1
From the text: as §2

LNCap = assay: MTT proliferation assay, prostate; type: cell-based; details: Homo sapiens, 72 h, read-out: Antiproliferative activity GI50 LNCap
From the text: as §2

M229 = assay: MTT proliferation assay, melanoma; type: cell-based; details: 72 h, read-out: Antiproliferative activity GI50 M229
From the text: as §2

U87 GBM cells [1] = assay: Subcutaneous U87 GBM xenograft, single agents; type: in vivo
From the text: (§4) Compound 1 and compound 2 were also investigated for in vivo antitumour activity in subcutaneous xenograft models. Briefly, U87 GBM cells were harvested and resuspended in a 1:1 mixture of serum-free media and matrigel, and 5×10^6 cells injected subcutaneously into the rear flank of 5-6-week-old CD1 nu/nu female mice. When the mean tumour volume reached 150-200 mm^3, animals were randomised to treatment groups (n=10 per group) and treated orally with vehicle (0.5% carboxymethyl cellulose in water), compound 1 or compound 2 daily for 21 days with the doses shown in FIGS. 5A and 5B. Mice were observed daily for signs of toxicity and weight loss, and tumour volume measured every other day.

U87 xenografted mice = assay: Subcutaneous U87 xenograft, compound 2 and TMZ study; type: in vivo; details: 25 mg/kg PO daily, single agent and with TMZ
From the text: as §4
In another study, U87 xenografted mice (n=8 per group) were treated with: (1) vehicle, (2) compound 2 (25 mg/kg, PO, daily), (3 and 4) TMZ (5 mg/kg or 50 mg/kg, PO, 5 day/week), (5) pre-treatment with compound 2 (25 mg/kg, PO, daily ×10), followed by TMZ (5 mg/kg, PO, 5 day/week ×2), (6) pre-treatment with TMZ (5 mg/kg, PO, 5 day/week ×2) followed by compound 2 (25 mg/kg, PO, daily ×10), and (7) co-treatment with compound 2 and TMZ, respectively. All treatment groups were completed by day 21, which were followed by a 7-day drug holiday before the second cycle of treatment started from day 29 (FIG. 5B).

U87 GBM cells [2] = assay: Orthotopic U87 GBM xenograft; type: in vivo, NSG mice
Method: In vivo anti-tumour efficacy of compound 1 and compound 2 was also investigated in GBM orthotopic mouse xenograft models. For example, compound 2 was administered orally once daily for 21 days to NSG mice (n=8) (The Jackson Laboratory, Ben Harbor, Me., United States of America) orthotopically engrafted with the U87 GBM cells per each treatment cohort. TMZ was given orally once daily for 5 days and was used as a positive control. The disease burden was measured by a non-invasive bioluminescent whole-body imaging technique.

CDK7/H = CDK7/H (Homo sapiens, UniProt P50613); assay: CDK kinase inhibition assay (radiometric / ADP Glo); type: biochemical
CDK7/H, sequence (P50613 whole entry): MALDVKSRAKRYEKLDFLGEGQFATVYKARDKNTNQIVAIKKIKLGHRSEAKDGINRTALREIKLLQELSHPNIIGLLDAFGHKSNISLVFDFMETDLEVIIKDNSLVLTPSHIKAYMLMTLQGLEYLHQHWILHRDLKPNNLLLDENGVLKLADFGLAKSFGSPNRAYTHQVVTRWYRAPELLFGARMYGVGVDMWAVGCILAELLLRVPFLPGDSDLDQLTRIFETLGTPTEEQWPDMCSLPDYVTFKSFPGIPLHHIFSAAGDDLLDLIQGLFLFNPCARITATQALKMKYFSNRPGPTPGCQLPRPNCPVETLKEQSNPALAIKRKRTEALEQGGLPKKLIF
CDK7/H, sequence (P51946 whole entry partner): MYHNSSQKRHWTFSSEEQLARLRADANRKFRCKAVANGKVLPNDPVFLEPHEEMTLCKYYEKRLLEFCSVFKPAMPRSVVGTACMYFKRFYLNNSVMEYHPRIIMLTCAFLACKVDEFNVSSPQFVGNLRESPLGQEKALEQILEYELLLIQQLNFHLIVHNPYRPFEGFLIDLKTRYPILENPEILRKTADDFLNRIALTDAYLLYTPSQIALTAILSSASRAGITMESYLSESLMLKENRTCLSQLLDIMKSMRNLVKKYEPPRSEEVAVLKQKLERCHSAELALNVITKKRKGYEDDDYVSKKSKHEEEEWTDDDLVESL
CDK7/H, sequence (P51948 whole entry partner): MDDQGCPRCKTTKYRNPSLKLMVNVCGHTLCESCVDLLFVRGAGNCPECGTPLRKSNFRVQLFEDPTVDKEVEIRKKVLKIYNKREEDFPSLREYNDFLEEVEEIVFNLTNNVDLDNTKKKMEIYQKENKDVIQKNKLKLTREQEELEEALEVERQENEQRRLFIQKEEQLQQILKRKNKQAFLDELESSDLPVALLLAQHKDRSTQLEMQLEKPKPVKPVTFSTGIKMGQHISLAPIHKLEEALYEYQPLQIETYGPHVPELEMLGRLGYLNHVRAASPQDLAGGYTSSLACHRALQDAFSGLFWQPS
Method: as §1

CDK1/B, sequence (P06493 whole entry): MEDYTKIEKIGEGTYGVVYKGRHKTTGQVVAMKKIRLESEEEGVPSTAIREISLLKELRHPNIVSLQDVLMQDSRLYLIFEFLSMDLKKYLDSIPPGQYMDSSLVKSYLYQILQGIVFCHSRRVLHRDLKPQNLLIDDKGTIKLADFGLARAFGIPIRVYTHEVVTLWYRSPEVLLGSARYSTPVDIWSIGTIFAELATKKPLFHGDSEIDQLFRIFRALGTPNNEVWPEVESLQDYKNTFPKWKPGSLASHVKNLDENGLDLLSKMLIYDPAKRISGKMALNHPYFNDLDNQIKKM
CDK1/B, sequence (P14635 whole entry partner): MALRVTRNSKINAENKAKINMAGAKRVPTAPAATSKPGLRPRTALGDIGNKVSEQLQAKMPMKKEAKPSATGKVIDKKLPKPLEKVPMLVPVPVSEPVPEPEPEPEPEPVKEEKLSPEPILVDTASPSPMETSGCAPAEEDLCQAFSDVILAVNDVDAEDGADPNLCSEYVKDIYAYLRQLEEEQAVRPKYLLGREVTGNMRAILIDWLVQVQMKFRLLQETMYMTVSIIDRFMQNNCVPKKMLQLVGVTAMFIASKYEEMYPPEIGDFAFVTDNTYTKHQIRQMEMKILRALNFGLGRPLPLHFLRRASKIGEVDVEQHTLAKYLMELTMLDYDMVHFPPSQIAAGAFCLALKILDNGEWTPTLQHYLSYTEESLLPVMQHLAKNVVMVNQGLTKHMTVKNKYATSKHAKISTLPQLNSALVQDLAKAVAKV

SMILES	Ki (CDK1/B) [nM]	Ki (CDK2/A) [nM]	Ki (CDK4/D1) [nM]	Ki (CDK6/D3) [nM]	Ki (CDK9/T1) [nM]	GI50 (MV4-11) [nM]	Ki (CDK7/H) [nM]	GI50 (MB453) [nM]	other results
CCN1CCN(Cc2ccc(Nc3ncc(F)c(-c4sc(NC5CCCC5)nc4C)n3)nc2)CC1 [Compound 2, N-cyclopentyl-5-(2-((5-((4-ethylpiperazin-1-yl)methyl)pyridin-2-yl)amino)-5-fluoropyrimidin-4-yl)-4-methylthiazol-2-amine]	> 1000	620	0.2	3	> 1000	10		620	GI50 (Colo205): 1550 nM; GI50 (T98G): 4180 nM; GI50 (U251): 5090 nM; GI50 (U87): 2170 nM; GI50 (H460): 410 nM; GI50 (A2780): 40 nM; GI50 (PANC1): 1210 nM; GI50 (LNCap): 280 nM; GI50 (M229): 830 nM; T/C (U87 GBM cells [1]; day 21, oral daily for 21 days, vs vehicle, p<0.001): 6%; tumour growth compared to vehicle treatment (U87 GBM cells [1]; oral daily for 21 days): markedly reduced tumour growth; toxicity (U87 GBM cells [1]; oral daily for 21 days, observed daily for signs of toxicity and weight loss): without any overt toxicity; toxicity (U87 xenografted mice): without any overt toxicity; anti-tumour efficacy (U87 xenografted mice; p<0.001 vs vehicle): significant anti-tumour efficacy both as a single agent and in combination with TMZ; inhibition in tumour growth (TGI) (U87 GBM cells [2]; day 21, oral once daily for 21 days, vs vehicle, p<0.001): 81.4%; increase in life span ratio (ILS) (U87 GBM cells [2]; vs vehicle control, ILS=(DaysT−DaysC)/DaysC): 154.8%
CCN1CCN(c2ccc(Nc3nccc(-c4sc(NC5CCCC5)nc4C)n3)nc2)CC1 [Compound 4, N-cyclopentyl-5-(2-((5-(4-ethylpiperazin-1-yl)pyridin-2-yl)amino)pyrimidin-4-yl)-4-methylthiazol-2-amine]	> 1000	355	2	11	141	10		290	
CNc1nc(C)c(-c2nc(Nc3ccc(N4CCC(N)CC4)cn3)ncc2F)s1 [Compound 7, 5-(2-((5-(4-aminopiperidin-1-yl)pyridin-2-yl)amino)-5-fluoropyrimidin-4-yl)-N,4-dimethylthiazol-2-amine]	> 1000	206	3	32	> 1000	80	> 1000	360	
Cc1nc(NC2CCCC2)sc1-c1ccnc(Nc2ccc(N3CCC(N)CC3)cn2)n1 [Compound 8, 5-(2-((5-(4-aminopiperidin-1-yl)pyridin-2-yl)amino)pyrimidin-4-yl)-N-cyclopentyl-4-methylthiazol-2-amine]	> 1000	278	1	8	508	30	282	100	
Cc1nc(NC2CCCC2)sc1-c1nc(Nc2ccc(N3CCOCC3)cn2)ncc1F [Compound 9, N-cyclopentyl-5-(5-fluoro-2-((5-morpholinopyridin-2-yl)amino)pyrimidin-4-yl)-4-methylthiazol-2-amine]	> 1000	104	6	20	> 1000	290	> 1000	1450	

Continued, in another order:

Ki (CDK1/B) [nM]	Ki (CDK2/A) [nM]	Ki (CDK4/D1) [nM]	Ki (CDK6/D3) [nM]	Ki (CDK9/T1) [nM]	GI50 (MV4-11) [nM]	Ki (CDK7/H) [nM]	SMILES	GI50 (MB453) [nM]	other results
> 1000	> 1000	1	34	220	20	> 1000	Cc1nc(NC2CCCC2)sc1-c1ccnc(Nc2ccc(N3CCNCC3)cn2)n1 [Compound 3, N-cyclopentyl-4-methyl-5-(2-((5-(piperazin-1-yl)pyridin-2-yl)amino)pyrimidin-4-yl)thiazol-2-amine]	70	
> 1000	> 1000	4	30	> 1000	170	> 1000	CNc1nc(C)c(-c2nc(Nc3ccc(N4CCN(C(C)=O)CC4)cn3)ncc2C#N)s1 [Compound 5, 2-((5-(4-acetylpiperazin-1-yl)pyridin-2-yl)amino)-4-(4-methyl-2-(methylamino)thiazol-5-yl)pyrimidine-5-carbonitrile]	810	
> 1000	416	6	9	> 1000	20	630	CCN1CCN(Cc2ccc(Nc3nccc(-c4sc(NC5CCCC5)nc4C)n3)nc2)CC1 [Compound 6, N-cyclopentyl-5-(2-((5-((4-ethylpiperazin-1-yl)methyl)pyridin-2-yl)amino)pyrimidin-4-yl)-4-methylthiazol-2-amine]	70	GI50 (Colo205): 4380 nM
